# Measured values as given in paper PMC5155426, “Organic Redox Species in Aqueous Flow Batteries: Redox Potentials, Chemical Stability and Solubility” (Scientific Reports, 2016).
# “And” between values parts separate entries of the source, which are not always exact repeats. Equal values may be shown once. “Also recorded” adds a separate entry of the source. Read-outs that look alike come from different tables or passages of the source.
# How the values were obtained:
# [1] = Cyclic voltammetry: formal redox potential, peak current ratio, electrochemical reversibility; type: physicochemical
# Experimental: The investigated compounds were used as-purchased and without any purification. […] For each series of CVs, a freshly polished electrode was used. The CVs for soluble compounds in 1 mM concentration were recorded in a glass beaker with a customized lid in nitrogen purged solutions of three different pHs, namely pH 0 (1 M H2SO4), pH 7 (0.5 M phosphate buffer) and pH 13 (1 M NaOH). The pH of the NaOH solution is taken as 13 to account for carbonization of the solution with exposure to air. A background CV was recorded before each CV experiment to exclude background contaminations. The CVs of insoluble compounds in 1 M H2SO4, or 0.5 M phosphate buffer were recorded as follows: 6 mL of the supporting electrolyte was mixed with approximately 4 mL of acetone, and then a small amount of the quinone was added so that its concentration was around 1 mM.
# Each CV was analyzed in terms of peak potentials and peak currents. Peak currents were determined by subtracting a polynomial fit of the background from the recorded current as exemplified in Supplementary, S1. A plot of the absolute values of the peak currents to the square root of the scan rate was constructed and, when reasonable, a linear fit included to evaluate the electrochemical (Nernstian) reversibility of the electrochemical reaction. The peak current Ip for reversible reactions are given by equation (1).
# Where F is the Faraday constant, R the gas constant, T the temperature, n the number of electron transferred, A the area of the electrode, DOthe diffusion coefficient and CO^*the bulk concentration of the analyte and v the scan rate. The peak current ratio is expected to be close to one for reversible species. The formal redox potential (E^0’), which is the adjusted form of the standard redox potential, where effects of the medium is taken into account, is reported here as the midpoint potential between the two peak potentials in the CV[24]. All half-cell potentials in this work refer to the normal hydrogen electrode (VNHE).
# [2] = Aqueous solubility estimation (OECD test #105) in 1 M supporting electrolytes; details: for solubility compared with AQDS(2,7) and AQS(2): sulfonated AQs
# Experimental: After each addition the test tube was ultrasonicated and/or shaken vigorously using a Vortex Generator for at least 10 minutes at room temperature. Then the tube was inspected visually for undissolved sample and the addition of supporting electrolyte solution continued until the sample seemed just dissolved. The volumes just before and after full dissolution are used for calculating the solubility interval (Supplementary, S4 and S5) and the solubility is estimated as the average between the two.
# [3] = Visual inspection of dissolved samples on standing (thixotropy, phase separation); type: physicochemical
# Experimental: Dissolved samples were left to stand for 12 hours and visually inspected for thixotropy using a vortex generator. For very insoluble compounds the amount of sample was decreased to 0.01 g and the dissolution time increased up to 24 h.
# In practical RFBs thixotropy is not wanted, as the redox solutions can be kept still for long times. […] Thixotropy of AQ dyes in aqueous dispersions has been described earlier, as well as some methods to overcome the problem such as addition of polyvinylpyrrolidone to the solution[43].
# [4] = pKa of the central (hydro)quinone groups estimated from the Pourbaix diagram; type: physicochemical; details: aqueous media, estimated from slope change in Pourbaix diagram, Fig. 5
# Experimental: Quinones generally undergo a reversible two-electron reduction/oxidation. The redox potential is strongly pH dependent, as the reaction may or may not involve two protons as illustrated in the scheme-of-squares mechanistic pathway in Fig. 3 [26]. At pH < pKa1, the reaction includes two protons and thus E^0’ decreases with 59 mV per pH unit (at 25 °C)[24]. At pKa1 < pH < pKa2 and pKa2 < pH only one and no protons are involved, whereby E^0’ decreases with 30 and 0 mV per pH unit, respectively. Generally, the reactions that include protons are slower and result in a lower electrochemical rate constant (k0) and may ultimately lead to higher charge-transfer resistance in the RFB. Thus, the choice of pH in the RFB environment strongly influences quinone electrochemical performance.
# Similarly to sulfonated AQs, the positions of the hydroxyl groups affect E^0’, but in acidic only to a small extent. […] The three former all have the hydroxyl groups on positions close to the quinone groups. The difference in E^0’ for these hydroxylated AQs and others may be found in the pKa values of the central (hydro)quinone groups. Those are not trivial to measure given the insolubility at lower pH values for hydroxylated AQs, but they can be estimated from the Pourbaix diagram in Fig. 5 [24][26]. For instance, in the Pourbaix diagram of AQDS(2,7), E^0’ follows the expected −59 mv/pH unit from pH 0 to pH 7 (pKa1). Then the first (hydro)quinone group deprotonates, and the slope changes to 30 mV/pH unit until pH 10 (pKa2) and E^0’ becomes pH-independent. […] Thus, if one can predict or measure reasonable values for these pKa values, it should be possible to predict which ones will have a more negative or positive E^0’ at higher pH.
# [5] = cited from earlier work; for chemical stability (in water): ref 29 (tetracyano benzoquinone), 30 (dicyano dichloro benzoquinone), 31 (tetracarboxyl para benzoquinone), 32 (duroquinone)
# [6] = pH 0 (1 M H2SO4), midpoint of CV peak potentials, about 1 mM, acetone added for insoluble compounds
# [7] = 1 M H2SO4 supporting electrolyte prepared from MilliQ water, aqueous buffer, thermodynamic from solid, Solubility, 1 M H2SO4, room temperature, interval just after / before full dissolution
# [8] = 1 M KCl supporting electrolyte prepared from MilliQ water, saline or isotonic, thermodynamic from solid, Solubility, 1 M KCl, room temperature
# [9] = pH 7 (0.5 M phosphate buffer), midpoint of CV peak potentials
# [10] = pH 13 (1 M NaOH), midpoint of CV peak potentials
# [11] = 1 M KOH supporting electrolyte prepared from MilliQ water, aqueous buffer, thermodynamic from solid, Solubility, 1 M KOH, room temperature
Compound,Peak current ratio ([1]; pH 0),"formal redox potential E0' [1, 6]",Peak current ratio ([1]; pH 7),Electrochemical reversibility ([1]; pH 13),Peak current ratio ([1]; pH 13),"solubility [2, 7] [mM]","solubility [2, 8] [mM]",Comment: behaviour of the solution upon standing ([3]; in KOH (1 M)),further results
"O=C1c2ccccc2C(=O)c2c1ccc(O)c2O [AQDH(1,2), 1,2-dihydroxy-9,10-anthraquinone]",0.73(7),0.005(4) VNHE,0.5(1),Quasireversible,1.2(1),< 10,< 10,T hixotropic; also recorded: thixotropy was observed,
"O=C1c2ccccc2C(=O)c2c(O)ccc(O)c21 [AQDH(1,4), 1,4-dihydroxy-9,10-anthraquinone]",0.6(1),,0.4(2),Reversible,1.05(3),< 10,< 10,T hixotropic; also recorded: thixotropy was observed,
"O=C1c2cccc(O)c2C(=O)c2c(O)cccc21 [AQDH(1,8), 1,8-dihydroxy-9,10-anthraquinone]",,,,Reversible,,,,,pKa ([4]; read-out: pKa1 of the (hydro)quinone groups): ~4; pKa ([4]; read-out: pKa2 of the (hydro)quinone groups): > 13
"O=C1c2cccc(O)c2C(=O)c2c(O)cc(CO)cc21 [AQDH(1,8)MH, 1,8-dihydroxy-3-(hydroxymethyl)-9,10-anthraquinone]",0.58(4),,0.51(4),Reversible,1.03(1),< 10,< 10,thixotropy was observed,"Comment: behaviour of the solution upon standing ([3]; in KOH (1 M), listed as AQDG(1,8)MH): T hixotropic behavior"
"O=C(O)c1cc(O)c2c(c1)C(=O)c1cccc(O)c1C2=O [AQDH(4,5)CA, 4,5-dihydroxy-9,10-anthraquinone-2-carboxylic acid]",0.39(6),0.041(9) VNHE,0.69(8),Reversible,1.23(7),< 10,< 10,thixotropy was observed,"Electrochemical reversibility ([1]; pH 7): Quasireversible; formal redox potential E0' [1, 9]: -0.267(1) VNHE; formal redox potential E0' [1, 10]: around −0.53 VNHE; formal redox potential E0' ([1]; pH 13 (1 M NaOH), midpoint of CV peak potentials, listed as AQDH(4,5)C A): -0.546(2) VNHE; Comment: behaviour of the solution upon standing ([3]; in KOH (1 M), listed as AQDH(4,5)C A): T hixotr opic behavior"
"O=C1c2cccc(S(=O)(=O)[O-])c2C(=O)c2cccc(S(=O)(=O)[O-])c21.[Na+].[Na+] [AQDS(1,5), 9,10-anthraquinone-1,5-disulfonate disodium]",1.7(1),−0.03 VNHE,0.49(3),Reversible,1.17(4),,,,"Electrochemical reversibility ([1]; pH 0): Quasireversible; Electrochemical reversibility ([1]; pH 7): Quasireversible; solubility [2, 11]: < 10 mM; solubility compared with AQDS(2,7) and AQS(2) [2]: more than ten times lower solubility; Comment: behaviour of the solution upon standing ([3]; electrolyte not stated): Phase separation"
"O=C1c2cccc(S(=O)(=O)[O-])c2C(=O)c2c1cccc2S(=O)(=O)[O-].[K+].[K+] [AQDS(1,8), 9,10-anthraquinone-1,8-disulfonate dipotassium]",1.04(7),0.03 VNHE,0.4(1),Reversible,1.0(3),,,,"Electrochemical reversibility ([1]; pH 0): Quasireversible; formal redox potential E0' ([1]; pH 0 (1 M H2SO4); midpoint of CV peak potentials; about 1 mM; acetone added for insoluble compounds; 8)): 0.027(4) VNHE; Electrochemical reversibility ([1]; pH 7): Quasireversible; formal redox potential E0' [1, 10]: -0.464(4) VNHE; solubility compared with AQDS(2,7) and AQS(2) [2]: more than ten times lower solubility; Comment: behaviour of the solution upon standing ([3]; electrolyte not stated): Phase separation"
"O=C1c2ccc(S(=O)(=O)O)cc2C(=O)c2ccc(S(=O)(=O)O)cc21 [AQDS(2,6), AQ-2,6-disulfonate]",,,,,,,,,E0' ([5]; pH 0): ~0.166 VNHE
"O=C1c2ccccc2C(=O)c2cc(S(=O)(=O)O)ccc21 [AQS(2), 9,10-anthraquinone-2-sulfonate sodium]",1.0(1),0.163(3) VNHE and 0.163 VNHE,0.88(1),,1.2(2),,,,"formal redox potential E0' [1, 10]: -0.334(3) VNHE; Electrochemical reversibility ([1]; pH not specified): Reversible; Comment: behaviour of the solution upon standing ([3]; electrolyte not stated): Phase separation"
"O=C1c2ccccc2C(=O)c2c1cc(S(=O)(=O)O)c(O)c2O [AQS(2)DH, 3,4-dihydroxy-9,10-anthraquinone-2-sulfonate sodium]",0.9(1),,0.85(6),,1.1(1),,< 10,T hixotropic behavior; also recorded: thixotropy was observed,"Electrochemical reversibility ([1]; pH not specified): Quasie versib le; solubility ([2]; 1 M H2SO4, room temperature, interval just after / before full dissolution): barely soluble"
O=C(O)c1cnccn1 [Pyrazine-2-carboxylic acid],,-0.013(3) VNHE,,,,70,80,,"formal redox potential E0' [1, 9]: Unstable; formal redox potential E0' [1, 10]: Unstable; solubility [2, 11]: 900 mM"
N#CC1=C(C#N)C(=O)C(Cl)=C(Cl)C1=O [dicyano dichloro benzoquinone],,,,,,,,,E0' [5]: 0.9 VNHE; chemical stability (in water) [5]: readily reacts with water
CC1=C(C)C(=O)C(C)=C(C)C1=O [duroquinone],,,,,,,,,potential ([5]; aqueous (acidic and neutral) solutions): 0.5 VNHE; chemical stability (in water) [5]: electrochemically reversible and chemically stable
O=C(O)C1=C(C(=O)O)C(=O)C(C(=O)O)=C(C(=O)O)C1=O [tetracarboxyl para benzoquinone],,,,,,,,,calculated standard potential [5]: > 1 VNHE; chemical stability (in water) [5]: decomposes after synthesis
N#CC1=C(C#N)C(=O)C(C#N)=C(C#N)C1=O [tetracyano benzoquinone],,,,,,,,,E0' estimated higher than that of dicyano dichloro benzoquinone [5]: 0.3 V; chemical stability (in water) [5]: Chemical instability in water
hexahydroxy anthraquinone,,,,,,,,,experimentally obtained E0' ([5]; pH 13): about −0.7 VNHE
